Experimental data: PubChem BioAssay (NCI)
Values joined by “and” are separate entries in the source; they are usually repeats but may differ in a detail not shown here. Identical values can stand only once.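 Five compound concentrations were applied to cells in 96-well plates for 48 hours; endpoints were derived by simple linear interpolation of the resulting dose-response curve. At the GI50, growth is halved. TGI is the concentration that stops growth completely.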

Experiments:
Test in all cases: inhibition of tumour cell growth, NCI panel, 48 h
[1] = test system: ACHN renal
[2] = test system: HCT-116 colon
[3] = test system: HOP-62 NSCLC
[4] = test system: M14 melanoma
[5] = test system: NCI-H226 lung
[6] = test system: NCI-H23 lung
[7] = test system: OVCAR-3 ovarian
[8] = test system: OVCAR-5 ovarian
[9] = test system: SK-MEL-5 melanoma
[10] = test system: MDA-MB-435

SMILES | TGI [1] [µM] | TGI [2] [µM] | TGI [3] [µM] | TGI [4] | TGI [5] [µM] | TGI [6] [µM] | TGI [7] [µM] | TGI [8] [µM] | TGI [9] | GI50 [3] | GI50 [4] | GI50 [10] [µM] | TGI [10] [µM] | GI50 [5] [µM] | GI50 [6] | GI50 [7] [µM] | GI50 [8] | GI50 [9] [µM] | GI50 [1] | GI50 [2]
COc1cc2c(OC)cc1CSCc1sc(C)c(c1Br)CSC2 | > 100 | > 100 | > 100 | > 100 µM | > 100 | > 100 | > 100 | > 100 | > 100 µM | – | – | – | – | – | – | – | – | – | – | –
CCn1c(=O)c2c(=O)c3c4c(oc3oc2c2ccccc21)C(=O)c1ccccc1C4=O | – | > 100 | > 100 | > 100 µM | > 100 | > 100 | 4.51 | > 100 | > 100 µM | > 21.6 µM | > 100 µM | > 100 | > 100 | > 100 | > 48.9 µM | 0.627 | > 100 µM | > 100 | – | –
Cc1cccc(C)c1NC(=O)C(=O)C(C(=O)c1ccccc1-c1ccccc1)C1OC(=O)c2ccccc21 (stereo not given) | > 100 | 27.8 | 35.7 | 29.3 µM | 30.3 | 30 | 38 | 48.9 | 33.7 µM | – | – | – | – | – | – | – | – | – | – | –
S=c1[nH]c(=S)c2nnn(-c3ccccc3)c2[nH]1 | > 100 | 4.49 | > 100 | > 100 µM | > 100 | > 100 | > 100 | > 100 | > 100 µM | – | – | – | – | – | – | – | – | – | – | –
N#CC(C(=O)C(=O)Nc1ccc(Cl)cc1)c1ccccc1 (stereo not given) | > 100 | > 100 | > 100 | > 100 µM | > 100 | > 100 | > 100 | > 100 | > 100 µM | – | – | – | – | – | – | – | – | – | – | –
COc1c[c]([Hg][O]C(C)=O)c(OC)c(NC(=O)CC(C)=O)[c]1[Hg][O]C(C)=O | 8.53 | 34.8 | 34.4 | 4.56 µM | 42.9 | 17.9 | > 21.1 | 33.7 | 11.2 µM | 20 µM | 2.11 µM | – | – | 19.5 | 11.6 µM | – | 19.3 µM | 2.75 | 3.01 µM | 13.1 µM
O=C1OCC2C1C1c3ccccc3C(O)c3ccccc3C21 (stereo not given) | > 100 | > 100 | > 100 | > 100 µM | > 100 | > 100 | > 100 | > 100 | > 100 µM | – | – | – | – | – | – | – | – | – | – | –
CC(=O)[O][Ga]([Br])[O]C(C)=O | > 100 | > 100 | – | > 100 µM | > 100 | > 100 | > 100 | > 100 | > 100 µM | – | > 100 µM | – | – | > 100 | > 100 µM | > 100 | > 100 µM | > 100 | > 100 µM | > 100 µM
COC(=O)[C@H]1C=C[C@@H](C)n2c(=O)c3cc4ccccc4cc3c(=O)n21 | > 100 | > 100 | > 100 | > 100 µM | > 100 | > 100 | > 100 | > 100 | > 100 µM | – | – | – | – | – | – | – | – | – | – | –
CC(C)N(CCn1c2c3ccccc3ccc2c2oc(=O)c3ccccc3c21)C(C)C | > 100 | > 100 | 98.7 | > 100 µM | > 100 | > 100 | > 100 | > 100 | – | – | – | – | – | – | – | – | – | – | – | –
Cc1nc([N+](=O)[O-])cn1CC(=N)N | > 100 | > 100 | > 100 | > 100 µM | > 100 | > 100 | > 100 | – | > 100 µM | – | – | – | – | – | – | – | – | – | – | –
Cc1ccc(NC(=O)CSc2nnc(-c3ccc(N=Cc4ccc(Cl)cc4)cc3)o2)cc1 | > 100 | > 100 | > 100 | > 100 µM | > 100 | > 100 | – | – | > 100 µM | – | – | – | – | – | – | – | – | – | – | –
CCCN1CN(C(C(=O)N[C@@H]2C(=O)N3C2SC(C)(C)C3C(=O)O)c2ccc(O)cc2)CSC1=S (stereo not given in full) | > 100 | > 100 | > 100 | > 100 µM | – | > 100 | 72.6 | > 100 | > 100 µM | – | – | – | – | – | – | – | – | – | – | –
Cc1cc(S(=O)(=O)O)c(NC(=O)C(=O)Cc2cc(=O)oc3cc(O)ccc23)cc1Cl | > 100 | > 100 | > 100 | > 100 µM | > 100 | > 100 | > 100 | > 100 | > 100 µM | – | – | – | – | – | – | – | – | – | – | –
O=C1c2ccccc2-c2c1c1ccccc1c(=O)n2CCCCl | 12.3 | 17.8 | 6.57 | > 100 µM | – | 50.1 | 8.18 | – | > 100 µM | 1.77 µM | 35.5 µM | 28 | > 100 | – | 15.7 µM | 3.23 | – | 5.92 | 3.03 µM | 3.65 µM
C/C(CC(=O)Nc1cccc(Cl)c1C)=N\NC(=O)c1ccncc1 | – | > 100 | > 100 | > 100 µM | > 100 | > 100 | > 100 | > 100 | > 100 µM | – | – | – | – | – | – | – | – | – | – | –
Cc1ccc(C)c(N=C2NC(=O)C(CC(=O)Nc3ccc(Cl)cc3Cl)S2)c1 (stereo not given) | > 100 | – | > 100 | > 100 µM | > 100 | > 100 | > 100 | > 100 | > 100 µM | – | – | – | – | – | – | – | – | – | – | –
CC(C)C(=O)NS(=O)(=O)c1ccccc1 | > 100 | > 100 | > 100 | > 100 µM | > 100 | > 100 | > 100 | > 100 | – | – | – | – | – | – | – | – | – | – | – | –
COC(=O)[C@@H](C)C[C@H](Cc1ccccc1)NC(=O)c1csc([C@@H](C[C@H](C(C)C)N(C)C(=O)[C@@H](NC(=O)[C@H]2CCCCN2C)C2CCCCC2)OC(C)=O)n1 | > 25 | 0.00325 | > 25 | 0.00312 µM and < 0.0025 µM | > 25 | > 25 | – | > 25 | 0.0131 µM and 0.0115 µM | 0.00213 µM and 0.0025 µM | 0.000304 µM and < 0.0025 µM | < 0.0001 | 0.000368 | 0.0025 | 0.00079 µM and 0.0025 µM | – | 0.00685 µM and 0.0025 µM | – | 0.000746 µM and 0.0025 µM | 0.000325 µM and 0.0025 µM
CC(=O)O[C@H]1CCC2[C@@H]3CCC4Nc5[nH]ncc5C[C@]4(C)C3CC[C@@]21C (stereo not given in full) | > 100 | > 100 | > 100 | > 100 µM | > 100 | > 100 | > 100 | > 100 | 74.9 µM | – | – | – | – | – | – | – | – | – | – | –
